Assay results published in the supplement of paper PMC8837787.

test system: Saccharomyces cerevisiae ABC16-Green Monster; test: growth inhibition at single dose (up to 150 µM), below the 70% cut-off for dose-response; higher = more potent; details: 18 h; 30 °C; YPD
Summary of the method: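 Percent growth inhibition is the reported value. Drug-sensitive S. cerevisiae ABC16-Green Monster cultures in log phase (OD600 0.1–0.2), 200 µl per well in 96-well plates, received each library compound once at 150 µM in biological duplicates, with untreated cultures run alongside. Growth was followed by OD600 at 0 h and after 18 h at 30 °C. Dose-response was not done for compounds below 70% in both replicates.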

Row | Compound | growth inhibition at single dose
1 | CC(C)Cc1ccc(C(C)c2nn3c(-c4ccco4)nnc3s2)cc1 (centres undefined) | < 70%
2 | CCCCn1nc(C)c(C(=O)Nc2nc3ccccc3[nH]2)c1Cl | < 70%
3 | CC1CS(=O)(=O)CCN1/N=C/c1ccc([N+](=O)[O-])o1 (centres undefined) | < 70%
4 | C=CCN(C(=O)c1[nH]c(C)c(C(C)=O)c1C)c1nc2c(s1)CCCC2 | < 70%
5 | Cc1nc(NCc2ccco2)c2c(C)c(C)sc2n1 | < 70%
6 | COc1cccc(C(=O)NC(c2ccc(C)cc2)c2cc(Cl)c3cccnc3c2O)c1 (centres undefined) | < 70%
7 | COc1ccc(OC)c(NCc2ccc3nc(N)nc(N)c3c2Cl)c1 | < 70%
8 | CC1CCc2[nH]c3ccc(C(=O)Nc4ccccc4N4CCCCC4)cc3c2C1 (centres undefined) | < 70%
9 | Cc1cccn2c(=O)cc(CN3C(=O)NC(C)(c4ccc(F)cc4)C3=O)nc12 (centres undefined) | < 70%
10 | O=C(Nc1ccc(N2CCOCC2)cn1)c1ccccc1 | < 70%
11 | Cc1ccc(S(=O)(=O)N2c3ccc(S(N)(=O)=O)cc3CC2C)cc1 (centres undefined) | < 70%
12 | CNC(=O)c1ccc(CN(C2CC2)S(=O)(=O)c2ccc(C)cc2C)cc1 | < 70%
13 | COc1ccc(CN2CCN(Cc3ccccc3)CC2)c(O)c1 | < 70%
14 | Nc1ncnc2c1ncn2[C@@H]1O[C@H](COS(=O)(=O)NC(=O)c2ccccc2O)[C@@H](O)[C@H]1O | < 70%
15 | CNC(=O)CNc1nc(-c2ccccn2)nc2scc(-c3ccccc3)c12 | < 70%
16 | CCOC(=O)CSCc1noc(COc2ccc(Cl)cc2Cl)n1 | < 70%
17 | COc1cc2cc(C(=O)Nc3ccccc3)c(N)nc2cc1OC | < 70%
18 | CC(=O)Nc1ccc(NC(=O)c2cc(-c3cc(Cl)ccc3O)[nH]n2)cc1 | < 70%
19 | Cc1c(C)n(CCCO)c2ncn3nc(-c4ccc(N(C)C)cc4)nc3c12 | < 70%
20 | COCCN(C(=O)Cc1cccs1)C(C(=O)NCc1ccc(OC)cc1)c1ccc(C(C)C)cc1 (centres undefined) | < 70%
21 | O=C(Nc1nc(CN2CCOCC2)cs1)c1ccc(-c2ccc(Cl)cc2)s1 | < 70%
22 | CCCCNc1nc(NC(C)(C)C)nc(NC(C)(C)C)n1 | < 70%
23 | N#Cc1ccc(NCCNc2nc3ccccc3s2)nc1 | < 70%
24 | Cc1ccc(-c2csc(Nc3ccccn3)n2)c(C)c1 | < 70%

Row | Compound | growth inhibition at single dose
25 | Cc1ccc(C(=O)OC(C)C(=O)N2CCCC2)cc1S(=O)(=O)N1CCCCC1 (centres undefined) | < 70%
26 | CC1=C(C(=O)Nc2ccccc2)C(c2ccco2)C(C#N)=C(SCc2ccccc2Cl)N1 (centres undefined) | < 70%
27 | CN1CCCC1CCO[C@](C)(c1ccccc1)c1ccc(Cl)cc1 (some centres undefined) | < 70%
28 | CC(C)(C)n1nc(Cc2ccc(F)c(Cl)c2)c2c(N)ncnc21 | < 70%
29 | FC(F)(F)c1cccc(Nc2nc(-c3ccccc3)nc3ncccc23)c1 | < 70%
30 | O=C1CC(O)(C(F)(F)C(F)(F)F)Oc2ccccc21 (centres undefined) | < 70%
31 | O=C1[C@@H](Oc2ccccc2)[C@@H](c2ccc(Cl)cc2)N1CCn1cnc2c(NCc3ccccc3)ncnc21 | < 70%
32 | COc1cc(/C=N/NC(=O)c2ccccc2NS(=O)(=O)c2cccs2)ccc1OCCC(C)C | < 70%
33 | N#Cc1ccc(NC(=O)Cn2ncc(Cl)c(Cl)c2=O)cc1 | < 70%
34 | O=C(Nc1ncccc1O)c1ccc(Cn2cccn2)cc1 | < 70%
35 | N#CCN(CCCCN1CCN(c2ccc(F)cc2)CC1)C(=O)OCc1ccccc1 | < 70%
36 | COc1ccc(C(=O)Nc2ccc(Cl)cc2C(=O)Nc2ccncc2)cc1 | < 70%
37 | COc1ccc(C2=NCCN2)cc1-c1cn(-c2cccc(C3=NCCN3)c2)nn1 | < 70%
38 | COc1ccc2c(=O)c(C(=O)N(C)Cc3ccc(F)c(F)c3)c[nH]c2c1 | < 70%
39 | c1ccc2c(NCc3ccc(N4CCCC4)nc3)ncnc2c1 | < 70%
40 | Oc1c2c(nc3ccccc13)CCCC2 | < 70%
41 | Cc1ccc2ncnc(NCCc3ccccc3)c2c1 | < 70%
42 | Nc1c2c(nc3sc4c(c13)CCCC4)CCCC2 | < 70%
43 | O=C(Nc1ccc(Br)cc1)Nc1cccc(Cl)c1 | < 70%
44 | Cc1nc(/C=C/C(=O)Nc2nc3ccccc3[nH]2)cs1 | < 70%
45 | CC1S/C(=C\c2nc3ccccc3s2)NC1=O (centres undefined) | < 70%
46 | COc1ccc(N(CCCN2C(=O)c3cccc4cccc(c34)C2=O)C(=O)c2ccccc2Cl)cc1 | < 70%
47 | O=C(Nc1cccc(C2=NCCN2)c1)Nc1cccc(C2=NCCN2)c1 | < 70%
48 | Cc1ccc(-c2cnn3c(NCCN(C)C)cc(C)nc23)cc1 | < 70%

Row | Compound | growth inhibition at single dose
49 | CCn1nnnc1Sc1nc(C)nc2sc3c(c12)CCC3 | < 70%
50 | O=C(Cn1ncc(Cl)c(Cl)c1=O)N1N=C(c2ccco2)CC1c1cccs1 (centres undefined) | < 70%
51 | CNC(=O)C1Cc2c([nH]c3cc(Cl)ccc23)C2(CCN(CCc3ccccc3)CC2)N1 (centres undefined) | < 70%
52 | COc1ccc(C(=N)N)cc1-c1cn(-c2ccc(C(=N)N)cc2)nn1 | < 70%
53 | COC(=O)c1cccc2oc(-c3cccc(OC)c3NC(=O)c3cc(-c4ccccc4)on3)nc12 | < 70%
54 | COCCNC(=O)c1ccc(OC2CCN(Cc3ccc(F)c(F)c3)CC2)c(Cl)c1 | < 70%
55 | CNc1snc(C)c1C(=O)Nc1ccc(OC)c(Cc2ccccc2)c1 | < 70%
56 | COc1cc(C(=O)c2c(-c3ccccc3)cc3ccccn23)cc(OC)c1OC | < 70%
57 | CCOC(=O)C1=CN(C)C=C(C(=O)OCC)C1c1cc(Br)c(OCC)c(OC)c1 | < 70%
58 | CN1CCN(c2ccc(NC(=O)c3csc4c3CCCC4)cc2)CC1 | < 70%
59 | COc1ccc(-c2nonc2NC(=O)c2cccc(C)c2)cc1OC | < 70%
60 | CCCn1c(CNc2ccccc2O)nc2ccccc21 | < 70%
61 | CCCc1c(CC)c(=N)c2ccccc2n1C | < 70%
62 | CN(C)c1ccc(C(=O)Nc2cnc3ccccc3c2)cc1 | < 70%
63 | CC(C)(C)c1ccc(C(=O)Nc2c3c(nn2-c2cccc(Cl)c2)CSC3)cc1 | < 70%
64 | COc1cc(-c2nc(-c3ccc(Sc4ccccc4)cc3)c(-c3ccccc3)[nH]2)cc(OC)c1O | < 70%
65 | COc1ccc(NC(=O)C2c3ccccc3C(=O)N(CC(C)C)C2c2cccs2)cc1Cl (centres undefined) | < 70%
66 | Cc1ccc(-c2nc3ccccc3o2)cc1NCc1cc(Cc2ccccc2)ccc1O | < 70%
67 | C=C(C)COc1ccc(-c2n[nH]c(C)c2-c2ccc(OC)c(OC)c2)c(O)c1 | < 70%
68 | Cc1ccc(NC(=O)c2cnn(C(C)(C)C)c2C)cc1F | < 70%
69 | c1nc(NCc2ccc(CN3CCOCC3)cc2)c2sccc2n1 | < 70%
70 | O=C1C=C/C(=N\Nc2ccc3ccccc3c2)c2cccnc21 | < 70%
71 | CCn1nc(C(=O)NCc2ccc(OC)cc2)c2c1CCN(C(=O)C1Cc3ccccc3O1)C2 (centres undefined) | < 70%
72 | COc1cc2c(cc1OC)CN(C(=O)c1ccc(OCC(F)(F)F)nc1)CC2 | < 70%

Row | Compound | growth inhibition at single dose
73 | Cc1ccccc1C(=O)N1N=C(Nc2ccccc2)SC1(C)C | < 70%
74 | Cc1ccccc1-n1c(C)cc(/C=C(\C#N)C(=O)NCC2CCCO2)c1C (centres undefined) | < 70%
75 | O=C(Nc1ccc(N2CCCC2)cn1)c1cc(Cl)ccn1 | < 70%
76 | Cc1ccc2oc(-c3cc(NC(=O)Cc4ccccc4)ccc3Cl)nc2c1 | < 70%
77 | CNc1snc(C)c1C(=O)NC(C)c1ccc(C(C)C)cc1 (centres undefined) | < 70%
78 | CCOC(=O)c1c(C)[nH]c(C(=O)Nc2cccc(C)n2)c1C | < 70%
79 | Cc1ccc(NS(=O)(=O)c2ccc(C(=O)Nc3ncccc3O)cc2)cc1 | < 70%
80 | Cc1cc(N2CCN(CCO)CC2)n2ncc(-c3ccc(F)cc3)c2n1 | < 70%
81 | COc1ccc(C)c2sc(N(Cc3cccnc3)C(=O)c3ccc(C#N)cc3)nc12 | < 70%
82 | Brc1cnc2nc(-c3ccccc3)[nH]c2c1 | < 70%
83 | CNC(=O)c1nn(C)c2c1C(C)(C)Cc1cnc(Nc3ccc(N4CCN(C)CC4)cc3)nc1-2 | < 70%
84 | COc1ccc(N2CCN(C(CNC(=O)C3CCCCC3)c3ccc4c(c3)OCO4)CC2)cc1 (centres undefined) | < 70%
85 | O=S(=O)(c1ccc2ccccc2c1)N1CCCC1c1nnc2ccccn12 (centres undefined) | < 70%
86 | CCOc1ccc(-c2nc(NC(=O)CS(=O)(=O)c3ccccc3)sc2C)cc1 | < 70%
87 | Cc1ccc(/C=C/C(=O)NC2=NCCS2)c(Br)c1 | < 70%
88 | Nc1ncnc2c1c(Cc1cccc3ccccc13)nn2CC1CCNCC1 | < 70%
89 | NC(=O)c1cc(Br)ccc1OCCOc1ccccc1 | < 70%
90 | N=C1NC(=O)C(Cc2ccc(OC(F)(F)F)cc2)S1 (centres undefined) | < 70%
91 | Cc1ccc2nc(C)c(-c3ccn(Cc4ccccc4)n3)n2c1 | < 70%
92 | Cc1nn2c(O)c3c(nc2c1-c1ccc(F)cc1)CCCC3 | < 70%
93 | CC(Oc1ccc(NC(=O)c2cccs2)cc1)C(=O)c1ccc(Cl)cc1 (centres undefined) | < 70%
94 | O=C1N=C(Nc2cccnc2)S/C1=C/c1ccc2ncccc2c1 | < 70%
